Assay results reported in patent US20250041282A1, “METHOD FOR TREATING INFLAMMATORY PULMONARY DISEASE” (FU JEN CATHOLIC UNIVERSITY, priority 2021, published 2025).

Legend:
RAW264.7 macrophages [1] = experiment: Morphology of LPS-stimulated macrophages; type: cell-based, mouse; conditions: LPS 24 hours; FIG. 1C
Procedure: To compare the anti-inflammatory effects of the newly synthesized compound FJU-C28 (FIG. 1A) on LPS-activated murine macrophages to those of the parent compound FJU-C4, RAW264.7 macrophages were pretreated with various concentrations of FJU-Cs for 30 min and then stimulated with or without LPS for 24 hours. […] LPS stimulation changed the shape of macrophages, resulting in dendritic-like cells with multiple vacuoles in the cytoplasm, whereas the untreated cells were round and small. […] This effect was consistent with the findings of the cytotoxicity assay. […] In addition, FJU-C28 suppressed the expression of iNOS and COX2 at doses higher than 5 μM (FIG. 1D).

RAW264.7 macrophages [2] = experiment: Analysis of cell viability (MTT assay); type: cell-based, mouse; conditions: FIG. 1B
Procedure: RAW264.7 cells (mouse monocyte/macrophage-like cells) were purchased from the Bioresource Collection and Research Center (Hsinchu, Taiwan). The cells were maintained in DMEM (HyClone, Logan, UT, USA) containing 10% fetal bovine serum (HyClone), MEM nonessential amino acids (HyClone), […] sodium pyruvate (HyClone), and penicillin/streptomycin (HyClone). The cells were incubated at 37° C. in a humidified atmosphere of 5% CO2 and 95% air. RAW264.7 macrophages were pretreated with FJU-Cs (0 to 10 μM) as indicated for 30 min and were then stimulated with/without LPS (100 ng/ml) for 24 h. The remaining cells were evaluated by a 3-(4,5-dimethylthiazol-2-yl)-2,5-diphenyl tetrazolium bromide (MTT) assay. Cells containing formazan crystals were dissolved in DMSO (Merck, Darmstadt, Germany) and quantified at a wavelength of 595 nm using a spectrophotometer (BioTek Instruments, Inc. Winooski, Vermont, USA). Each experiment was repeated at least 3 times.

RAW264.7 macrophages [3] = experiment: Western blotting of LPS-stimulated macrophage lysates; type: cell-based, mouse
Text: In brief, cell lysate was separated by 10% SDS-PAGE and transferred to a PVDF membrane (Hybond™-P, Amersham, Piscataway, NJ, USA). The blots were probed with anti-p38 (Catalogue Number: 8690P), anti-p-p38 (Thr180/Tyr182; Catalogue Number: 4511P), anti-ERK44/42 (Catalogue Number: 4695P), anti-p-ERK44/42 (Thr202/Tyr204; Catalogue Number: 4370P), anti-JNK (Catalogue Number: 9258P), anti-p-JNK (Thr183/Tyr185; Catalogue Number: 4668P), anti-p65 (Catalogue Number: 8242S), anti-STAT3 (Catalogue Number: 12640S), anti-p-STAT3 (Tyr705; Catalogue Number: 9145S) and anti-RANTES (Catalogue Number: 2989S) antibodies were provided by Cell Signaling Technology, Inc. (Danvers, MA, USA). Anti-Lamin A/C (Catalogue Number: 101127) antibodies were obtained from GeneTex, Inc. (San Antonio, TX, USA). Anti-β-Actin (Catalogue Number: SC-47778) and anti-COX2 (Catalogue Number: SC-1746) antibody was obtained from Santa Cruz Biotechnology, Inc. (Dallas, Texas, USA). The anti-iNOS (Catalog Number: 610329) antibody was obtained from BD transduction Lab. (San Jose, CA, USA). Bound antibodies were visualized by […] staining (Western Lighting Plus ECL; PerkinElmer, Wellesley, MA, USA) with autoradiography using FUJI Medical X-ray film (Fuji Corporation, Kofu, Yamanashi, Japan) or a MultiGel-21 multifunctional imaging system (TOPBIO, New Taipei, Taiwan). The intensity of the western blot bands was quantified by ImageJ software. The quantitative immunoblot data were normalized to the internal control protein and are expressed as the relative ratio of the treatment group to the control. The data represent the mean±S.D. of at least three independent experiments.

[4] = system: C57BL/6 mice with LPS-induced systemic inflammation; experiment: Lung function in mice with LPS-induced systemic inflammation (Buxco); type: in vivo, mouse; conditions: FJU-C28 5 mg/kg, LPS 7.5 mg/kg, 24 hours
Procedure: Ten-week-old male C57BL/6 mice from BioLasco Taiwan Co., Ltd. (Taipei, Taiwan) were used in the present study. The mice were maintained under standard laboratory conditions as described in a previous study.^34 All animal procedures were approved by the Institutional Animal Care and Use Committee of Fu Jen Catholic University (IACUC approval number: A10508). We also confirmed that all experiments were performed in compliance with the ARRIVE guidelines. All surgeries were performed under anesthesia, and all efforts were made to minimize the pain and discomfort of the animals. The mice were randomly assigned to three groups: control (n=7), LPS (n=7) and LPS plus C28 (n=8). The mice were injected with/without FJU-C28 (5 mg/kg) dissolved in DMSO/PBS buffer, and after one hour the mice were stimulated with an intraperitoneal injection of LPS (7.5 mg/kg) in PBS buffer. At 24 hours after LPS stimulation, the mice were anesthetized i.p. with a mixture of ketamine (100 mg/kg) (Pfizer, New York, US) and xylazine (10 mg/kg) (Bayer, Leverkusen, Germany), endotracheally intubated with an airway catheter and connected to a forced pulmonary maneuver system (Buxco Research System; Buxco Electronics, Wilmington, NC). The detailed procedure was performed as described in a previous study.^34 The lung function values, including C chord (lung compliance), IC (inspiratory capacity), VC (vital capacity), FEV100 (forced expiratory volume at 100 ms) and FVC (forced vital capacity), were measured using a Buxco Research System. After the lung function assays, the experimental mice were sacrificed, and blood was collected by cardiac puncture. The lung lobes were inflated with 4% buffered paraformaldehyde via a catheter. Slides of lung specimens at a thickness of 5 μm were stained with hematoxylin and eosin for light microscopic analysis.
To evaluate the protective effect of FJU-C28 on lung function in mice with systemic inflammation induced by endotoxin, male C57BL/6 mice were administered LPS (7.5 mg/kg) and treated with/without FJU-C28 (5 mg/kg) for 24 hours; subsequently, lung function parameters were measured using a Buxco pulmonary function test system. […] However, treatment with FJU-C28 restored the LPS-induced decreases in lung function including VC (p<0.05), C chord, FEV100 (p<0.05), and FVC (p<0.05), compared to those of LPS-treated mice (FIG. 11). To confirm the status of LPS-induced lung injury in mice, histological examination of lung specimens was performed by H&E staining. […] To ascertain the correlation between target cytokines and lung injury, serum cytokines were measured by ELISA.

[5] = LPS-stimulated, at doses higher than 5 μM, FIG. 1D

C=CCC1CC(Sc2ccccc2)=CC(=O)N1C(=O)C=C (stereo not shown) [FJU-C28]
LPS-induced changes in macrophage morphology (RAW264.7 macrophages [1]): dramatically inhibited these changes in morphology in a concentration-dependent manner | cytotoxicity (RAW264.7 macrophages [2]; compared with 10 μM FJU-C4, 24 hours): less cytotoxicity than 10 μM FJU-C4 | LPS-induced cell death (RAW264.7 macrophages [2]; pretreated 30 min, then LPS 24 hours): protected RAW264.7 macrophages from LPS-induced cell death | LPS-induced level of p-ERK (RAW264.7 macrophages [3]; 5 μM and 10 μM, FIG. 6A): dramatically inhibited | LPS-induced level of p-JNK (RAW264.7 macrophages [3]; 5 μM and 10 μM, FIG. 6A): dramatically inhibited | LPS-induced level of p-p38 (RAW264.7 macrophages [3]; 5 μM and 10 μM, FIG. 6A): dramatically inhibited | levels of STAT3 protein (RAW264.7 macrophages [3]; FIG. 8): reducing the levels of STAT3 protein | LPS-induced phosphorylation of STAT3 (RAW264.7 macrophages [3]; LPS-induced RAW264.7, FIG. 6D): concentration-dependently inhibited | expression of COX2 (immunoblot) (RAW264.7 macrophages [3]; [5]): suppressed | expression of iNOS (immunoblot) (RAW264.7 macrophages [3]; [5]): suppressed | NF-κB (p65) in nuclear extract (translocation) (RAW264.7 macrophages [3]; LPS-stimulated, increasing dose, FIG. 6C): nuclear NF-κB (p65) was decreased | LPS-induced protein expression of RANTES (western blot) (RAW264.7 macrophages [3]; at 6 hours, FIG. 4B): dramatically suppressed | forced expiratory volume at 100 ms (FEV100) ([4]; p<0.05 vs LPS-treated mice): restored | forced vital capacity (FVC) ([4]; p<0.05 vs LPS-treated mice): restored | vital capacity (VC) ([4]; p<0.05 vs LPS-treated mice): restored | lung compliance (C chord) ([4]; vs LPS-treated mice): restored
